# Test results from patent US20240130675A1, “Methods for Treating Autism Spectrum Disorder” (The General Hospital Corporation, priority 2021, published 2024).
# System: youth with ASD
# Experiment: 12-week randomized, double-blind, placebo-controlled trial: efficacy on autism related impairments (SRS-2, CGI-I, ABC-Social Withdrawal, CY-BOCS-PDD)
# Assay type: in vivo, human
# Set-up: SRS-SCI / SRS-Social Cognition / SRS-Social Awareness / SRS-Social Motivation / SRS-Social Communication / SRS-Autistic Mannerisms / ABC-Social Withdrawal: scale not given here
# Details: for ABC-Social Withdrawal / CY-BOCS-PDD / SRS-Autistic Mannerisms / SRS-SCI / SRS-Social Awareness / SRS-Social Cognition / SRS-Social Communication / SRS-Social Motivation / SRS-Total: MEM [N = 16]
# Experimental: This study was a 12-week, randomized, double-blind, placebo-controlled, parallel group clinical trial of memantine in youth with ASD. Youth with ASD who met the eligibility criteria were randomized to receive either memantine or placebo during the course of the 12-week trial. Participants underwent multimodal MRI scans prior to and upon completion of the 12-week trial. Participants were assessed weekly during the titration phase (baseline to Week 4) and at midpoint (Week 6), Week 9, and completion (Week 12) during the maintenance phase. At each study visit, safety and efficacy were assessed by administering measures of efficacy (CGI, GAF), tolerability (assessing treatment-emergent AEs), and safety (vital signs, including weight). At baseline, midpoint, and endpoint (completion/early termination) severity of autism was assessed by administering measures of autism severity (SRS-2, ABC-SW, CY-BOCS-PDD) and associated psychopathology (ADHD-RS, CDRS-R, CASI-ANX).
# Eligible participants were of both sexes, aged 8 to 17 years, with intact intellectual ability, as established by a full-scale intelligence quotient of 85 or greater based on the Vocabulary and Matrix Reasoning subtests of the Wechsler Abbreviated Scale of Intelligence-Second Edition (WASI-II (Wechsler, 2011)). Participants were required to meet DSM-IV-TR/5 diagnostic criteria for autism, as established by clinical diagnostic evaluation and to have at least moderate severity of ASD, as determined by a total raw score of 85 or greater on the informant-rated Social Responsiveness Scale-Second Edition (SRS-2; (Constantino et al., 2003)) and a score of 4 or greater on the clinician-rated National Institute of Mental Health (NIMH) Clinical Global Impression (CGI) severity scale (CGI-S; (National Institute of Mental Health, 1985)).
# In this 12-week, randomized, double-blind, placebo-controlled, parallel group clinical, ASD participants were randomized in a 1:1 ratio to receive memantine or placebo. An independent statistician created a computer-generated randomization schedule, using stratified randomization by sex (male vs. female) and race (Caucasian vs. Non-Caucasian). The Clinical Trials Pharmacy at MGH dispensed the study medication (memantine and placebo) based on the randomization schedule. The randomization schedule remained confidential throughout the study.
# Study medication was titrated to the maximum daily dose during the first 4 weeks of the trial (dose titration phase) and from there on, subjects were maintained on maximum achieved dose until the end of the trial (dose maintenance phase). Titration of the study medication was guided by a flexible titration schedule which allowed for slower titration or maintaining at a lower dose, as guided by study clinician judgment of tolerability. Study medication was administered in divided dosages. Study medication was initiated at 2.5 mg/day (raised to 5 mg/day on day 4) and was up-titrated by 5 mg/week to a maximum dose of 20 mg/day.
# The efficacy of memantine for the treatment of autism related impairments was assessed by the informant-rated Social Responsiveness Scale—Second Edition (SRS-2) as continuous outcome measure, and by the clinician-rated CGI-I subscale, as categorical outcome measure. Treatment response criteria for this trial was defined as≥25% improvement on the SRS-2 and a score of 2 or 1 on the CGI-I subscale, i.e., “much” or “very much improved.”
# Additional treatment response of autism impairment was examined for the ASD subdomains by assessing change with treatment in the severity of the SRS-2 subscales and the Children's Yale Brown Obsessive Compulsive Scale modified for PDD (CY-BOCS-PDD) (Goodman et al., 1986 (Rev 89); Scahill et al., 2006) to assess change with treatment in the ritualistic behaviors associated with ASD. […]
smiles,measurement,setting,value
"CC12CC3CC(C)(C1)CC(N)(C3)C2 [MEM, memantine]","SRS-Social Awareness, ES [95% CI]","Cohen's d, MEM vs PBO",0.74
same,"SRS-Social Cognition, ES [95% CI]","Cohen's d, MEM vs PBO",0.83
same,ABC-Social Withdrawal,BL (baseline),12.5 ± 8.6
same,CY-BOCS-PDD,BL (baseline),2.9 ± 5.4
same,SRS-Autistic Mannerisms,BL (baseline),21.1 ± 5.9
same,SRS-SCI,BL (baseline),93.5 ± 17.0
same,SRS-Social Awareness,BL (baseline),14.3 ± 3.0
same,SRS-Social Cognition,BL (baseline),20.0 ± 3.9
same,SRS-Social Communication,BL (baseline),40.1 ± 8.1
same,SRS-Social Motivation,BL (baseline),19.1 ± 6.9
same,SRS-Total,BL (baseline),114.5 ± 21.3
same,ABC-Social Withdrawal,EP (endpoint),5.6 ± 5.4
same,CY-BOCS-PDD,EP (endpoint),1.9 ± 4.0
same,SRS-Autistic Mannerisms,EP (endpoint),13.4 ± 3.8
same,SRS-SCI,EP (endpoint),63.8 ± 20.0
same,SRS-Social Awareness,EP (endpoint),10.7 ± 3.0
same,SRS-Social Cognition,EP (endpoint),13.7 ± 4.5
same,SRS-Social Communication,EP (endpoint),27.0 ± 10.4
same,SRS-Social Motivation,EP (endpoint),12.4 ± 5.7
same,SRS-Total,EP (endpoint),77.0 ± 22.5
same,ABC-Social Withdrawal,MD (mean difference),−6.9 ± 7.0
same,CY-BOCS-PDD,MD (mean difference),−0.9 ± 2.1
same,SRS-Autistic Mannerisms,MD (mean difference),−7.8 ± 6.4
same,SRS-SCI,MD (mean difference),−29.8 ± 22.2
same,SRS-Social Awareness,MD (mean difference),−3.6 ± 3.9
same,SRS-Social Cognition,MD (mean difference),−6.3 ± 5.6
same,SRS-Social Communication,MD (mean difference),−13.0 ± 9.4
same,SRS-Social Motivation,MD (mean difference),−6.8 ± 5.4
same,SRS-Total,MD (mean difference),−37.6 ± 27.9
same,"≥25% ↓↓SRS + CGI-I ≤ 2, ES [95% CI]","Odds Ratio, MEM vs PBO",4.82
